Experimental data reported in EP0312291A2, “Di-or tripeptide renin inhibitors containing lactam conformational restriction in ACHPA” (Merck & Co., Inc., priority 1987, dated 1989).

These compounds were tested against T1, human plasma renin (Homo sapiens, UniProt P00797) (assay: Inhibition of human plasma renin, in vitro method of Boger et al., J. Med. Chem. (1985) 28, 1779).
T1 construct: from tissue; host or cells: human plasma
T1 sequence (P00797 67-406): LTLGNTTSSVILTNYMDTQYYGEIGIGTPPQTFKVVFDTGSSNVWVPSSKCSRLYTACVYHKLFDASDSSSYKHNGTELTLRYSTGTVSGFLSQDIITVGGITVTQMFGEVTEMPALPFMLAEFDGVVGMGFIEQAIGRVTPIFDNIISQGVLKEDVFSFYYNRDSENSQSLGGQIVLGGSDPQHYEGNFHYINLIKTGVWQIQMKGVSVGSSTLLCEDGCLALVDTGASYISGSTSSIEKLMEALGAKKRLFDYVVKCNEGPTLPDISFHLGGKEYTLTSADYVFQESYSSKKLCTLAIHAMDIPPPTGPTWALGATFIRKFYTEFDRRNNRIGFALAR
Type: biochemical
Procedure: Inhibition of human plasma renin was assayed using the in vitro method described by Boger, et. al., J. Med. Chem. (1985) 28, 1779.

IC50 [nM]	Compound
47	CN1CCC[C@@H]([C@H](O)[C@H](CC2CCCCC2)NC(=O)[C@H](Cc2c[nH]cn2)NC(=O)[C@H](Cc2ccccc2)NC(=O)OC(C)(C)C)C1=O [Example 3A, Boc-Phe-His-(ACHP)-1-Methyl-2-Piperidinone]
203	CN1CCCC[C@@H]([C@H](O)[C@H](CC2CCCCC2)NC(=O)[C@H](Cc2c[nH]cn2)NC(=O)[C@H](Cc2ccccc2)NC(=O)OC(C)(C)C)C1=O [Example 3C, Boc-Phe-His-(ACHP)-1-Methylcaprolactam]
31	Boc-Phe-His-(ACHP)-4-Methyl-3-Morpholinone [Example 3B]
